{"source": "patent US11413280B2", "about": "(The Board of Trustees of the Leland Stanford Junior …, priority 2017, dated 2022)", "tested_on": "SUGEN5416/Hypoxia/Normoxia rats", "experiment": "SUGEN5416/Hypoxia/Normoxia rat model of experimental PH", "type": "in vivo", "protocol": "Experimental PAH was induced in male Sasco Sprague Dawley rats by subcutaneous injection of 20 mg/kg body weight SU5416. […] Echocardiography was performed to assess development of RV hypertrophy and Ejection Fraction. Right Ventricular (RV) Systolic Pressure was measured through right jugular vein catheterization and RV hypertrophy was assessed by the weight ratio of the RV to left ventricle+septum. Vessel loss and muscularization of lung vessels were visualized by MOVAT pentachrome stain. […] FIG. 4F, Representative MOVAT lung histology. Fhit homozygous (−/−) mice were obtained from Kay F. Huebner (Ohio State University). Bmpr2+/− mice were a gift from Marlene Rabinovitch (Stanford University). Adult wildtype C57BL/6 mice, Bmpr2+/− or Fhit−/− mice at 8-10 weeks of age were housed in chronic hypoxia (10% O2) for 3 weeks, followed by a recovery period of 4 weeks in normoxia (21% O2). […] Development of experimental PH was induced in adult Sprague Dawley rats (8 weeks old, 180-220 g) through a subcutaneous dose of the VEGFR-2 inhibitor SUGEN5416 (20 mg/kg body weight), followed by exposure to chronic hypoxia (10% O2) for 3 weeks and normoxia for 5 weeks (21% O2), as previously described(12). […] Right Ventricular (RV) Systolic Pressure was measured through right jugular vein catheterization, and RV hypertrophy (RVH) was assessed by the weight ratio of the RV to left ventricle and septum (LV+S). Murine and rat lung tissue was fixed in paraformaldehyde (PFA) for 48 hours and preserved in EtOH. Paraffin embedded lung slides were stained with a Movat pentachrome stain (Histo-Tec, Hayward, Calif.), where vessel loss and muscularization of pulmonary vessels was visualized by light microscopy. Fluorescent immunocytochemistry on lung sections was performed on deparaffinized (Histoclear II, National Diagnostics) tissue sections with primary antibodies for von-Willebrand factor (vWF) and alpha smooth muscle actin (αSMA) following antigen-retrieval. Human PAH lung tissue was stained for anti-BMPR2 (Ab130206, Abcam) and anti-FHIT (kind gift of Kay F. Huebner, Ohio State University). PFA-fixed paraffin-embedded heart tissue was stained with trichrome staining (Histo-Tec, Hayward, Calif.) to visualize fibrotic transformation. Sprague Dawley rats, were subcutaneously injected with 20 mg/kg SUGEN5416 once and housed in chronic hypoxia (10%, 3 weeks), followed by 5 weeks in normoxia as previously described(41). […] Hemodynamic assessment of the animals (echocardiography, right heart catheter) was performed before sacrifice and tissue collection. […] Experimental PH was induced in male Sprague Dawley rats by subcutaneous injection of 20 mg/kg body weight SU5416. […] FIG. 11F, Representative MOVAT lung histology, highlighting large pulmonary vessels.", "key": {"[1]": {"conditions": "5 mg/kg daily oral gavage for 3 weeks, vs vehicle"}, "[2]": {"conditions": "5 mg/kg/day oral gavage for 3 weeks, qPCR"}}, "note": "“Also recorded” adds a separate entry of the source.", "data": [{"smiles": "Cn1cc(C2=C(c3cn(C4CCN(Cc5ccccn5)CC4)c4ccccc34)C(=O)NC2=O)c2ccccc21", "note": "[Enzastaurin, 3-(1-methyl-1H-indol-3-yl)-4-[1-[1-(pyridin-2-ylmethyl)piperidin-4-yl]-1H-indol-3-yl]-1H-pyrrole-2,5-dione]", "values": [{"measurement": "Cardiac output", "setting": "5 mg/kg daily oral gavage", "result": "improves"}, {"measurement": "Cardiac / RV fibrosis", "setting": "[1]", "result": "reverses; also recorded: potently reduced"}, {"measurement": "Full or partial remodeling / muscularization of small and large vessels", "setting": "[1]", "result": "substantially and significantly reversed; also recorded: potently reduced"}, {"measurement": "Loss of alveolar wall (AW) and alveolar duct (AD) pulmonary vessels", "setting": "[1]", "result": "substantially and significantly reversed"}, {"measurement": "Right ventricle hypertrophy (RVH)", "setting": "[1]", "result": "lower; also recorded: potently reduced"}, {"measurement": "Vascular occlusion", "setting": "[1]", "result": "reverses; also recorded: nearly entirely reversed; also recorded: significantly less evidence"}, {"measurement": "Right ventricle systolic pressure (RVSP)", "setting": "5 mg/kg daily oral gavage for 3 weeks, vs vehicle treated controls with experimental PAH", "result": "lower"}, {"measurement": "Emphysematous changes (linear intercept analysis of MOVAT lung histology)", "setting": "5 mg/kg daily oral gavage, vs untreated controls", "result": "significantly less evidence"}, {"measurement": "Reduction of RVSP", "setting": "5 mg/kg/day oral gavage for 3 weeks", "result": "over 30 mmHg"}, {"measurement": "BMPR2 expression in whole lung", "setting": "[2]", "result": "increased"}, {"measurement": "FHIT expression in whole lung", "setting": "[2]", "result": "increased"}, {"measurement": "LVEF (%) by Echocardiography", "setting": "before and after 3 weeks of 5 mg/kg daily oral gavage", "result": "improvement"}, {"measurement": "SUGEN5416/Hypoxia/Normoxia-induced lung and RV damage", "setting": "low-dose Enzastaurin (5 mg/kg/day)", "result": "potently reversed"}]}]}
